Laboratory results as given in patent publication US7393812B2, “Methylidene mevalonates and their use as herbicides” (Dow AgroSciences LLC, priority 2004, dated 2008).

Experiments:
Experiment in all cases: General herbicidal evaluation, postemergence
Format in all cases: in vivo
Details in all cases: 16 days after treatment
[1] = tested on: blackgrass (Alopecurus myosuroides, ALOMY)
Description: (§1) Applications of methylidene mevalonate were made either to the foliage (postemergence) or soil (preemergence). Seeds of sunflower (Helianthus annus, HELAN), morningglory (Ipomoea hederacea, IPOHE) velvetleaf (Abutilon theophrasti, ABUTH), pigweed (Amaranthus spp., AMARE), barnyardgrass (Echinochloa crusgalli, ECHCG), giant foxtail (Setaria faberi, SETFA), wild oats (Avena fatua, AVEFA), and blackgrass (Alopecurus myosuroides, ALOMY) were planted in mineral soil (sandy clay loam, 51% sand, 26% silt, 23% clay, 2.8% O.M., pH 7.8) and Metro-mix (Bulk Sak, Inc., Malvern, Ark., USA) for preemergence and postemergence treatments, respectively. Pots receiving preemergence treatments were watered immediately following application. Prior to postemergence treatment, plants were grown in the greenhouse (16 h photoperiod, 27 C) and thinned to a density of 2 to 15 plants pot^−1, depending on species. At the time of postemergence applications, plants were 8-12 days old, 3 to 10 cm in height, and in the 1- to 3-true-leaf stage. Natural light in the greenhouse was supplemented with metal halide lights that provided an average photosynthetic photon flux of 500 μmol m^−2s^−1.
(§2) A sample of sodium methylidene mevalonate was dissolved in 4 mL of distilled water followed by 10 mL of formulation stock “B” (200 mL isopropanol, 20 mL crop oil concentrate, 0.4 g Triton X-155 [Sigma Chemical Co., St. Louis, Mo. 62718], and 78 mL water). This was followed by three 1:1 (v/v) serial dilutions using formulation stock “C” (100 mL isopropanol, 10 mL crop oil concentrate, 0.2 g Triton X-155, 390 mL water, 485 mL acetone and 15 mL DMSO).
(§3) Treatments were made at four different doses (4000, 2000, 1000, and 500 g ha^−1). For preemergence treatments, 1.75 mL of spray solution were applied to the soil surface in each pot using a glass Cornwall syringe fitted with a Teejet SS8001E flat-fan nozzle (Spraying Systems Co., Wheaton, Ill. 60189-7900). For postemergence applications, the foliage of the test plants was sprayed using a DeVilbiss atomizer (DeVilbiss Health Car, Inc., Somerset, Pa. 15501) driven by compressed air at a pressure of 22 kPa. Untreated controls were included.
(§4) Pots were placed in the greenhouse following compound application. Pots from postemergence and preemergence were sub-irrigated and top-watered, respectively, as needed for the duration of the test. […]

[2] = tested on: wild oats (Avena fatua, AVEFA)
Description: as §1, §2, §3, §4

[3] = tested on: barnyardgrass (Echinochloa crusgalli, ECHCG)
Description: as §1, §2, §3, §4

[4] = tested on: velvetleaf (Abutilon theophrasti, ABUTH)
Description: as §1, §2, §3, §4

[5] = tested on: pigweed (Amaranthus spp., AMARE)
Description: as §1, §2, §3, §4

[6] = tested on: giant foxtail (Setaria faberi, SETFA)
Description: as §1, §2, §3, §4

[7] = tested on: sunflower (Helianthus annus, HELAN)
Description: as §1, §2, §3, §4

[8] = tested on: morningglory (Ipomoea hederacea, IPOHE)
Description: as §1, §2, §3, §4

C=C(CO)C(C)(O)CC(=O)O (centres unmarked) [methylidene mevalonate, 3-hydroxy-4-(hydroxymethyl)-3-methylpent-4-enoic acid]
Visual Injury (%) ([1]; 0.5 kg ha^−1, ALOMY): 30% | Visual Injury (%) ([1]; 1.0 kg ha^−1, ALOMY): 30% | Visual Injury (%) ([1]; 2.0 kg ha^−1, ALOMY): 60% | Visual Injury (%) ([1]; 4.0 kg ha^−1, ALOMY): 60% | Visual Injury (%) ([2]; 0.5 kg ha^−1, AVEFA): 40% | Visual Injury (%) ([2]; 1.0 kg ha^−1, AVEFA): 60% | Visual Injury (%) ([2]; 2.0 kg ha^−1, AVEFA): 60% | Visual Injury (%) ([2]; 4.0 kg ha^−1, AVEFA): 85% | Visual Injury (%) ([3]; 0.5 kg ha^−1, ECHCG): 60% | Visual Injury (%) ([3]; 1.0 kg ha^−1, ECHCG): 70% | Visual Injury (%) ([3]; 2.0 kg ha^−1, ECHCG): 70% | Visual Injury (%) ([3]; 4.0 kg ha^−1, ECHCG): 90% | Visual Injury (%) ([4]; 0.5 kg ha^−1, ABUTH): 40% | Visual Injury (%) ([4]; 1.0 kg ha^−1, ABUTH): 60% | Visual Injury (%) ([4]; 2.0 kg ha^−1, ABUTH): 60% | Visual Injury (%) ([4]; 4.0 kg ha^−1, ABUTH): 65% | Visual Injury (%) ([5]; 0.5 kg ha^−1, AMARE): 30% | Visual Injury (%) ([5]; 1.0 kg ha^−1, AMARE): 50% | Visual Injury (%) ([5]; 2.0 kg ha^−1, AMARE): 40% | Visual Injury (%) ([5]; 4.0 kg ha^−1, AMARE): 50% | Visual Injury (%) ([6]; 0.5 kg ha^−1, SETFA): 40% | Visual Injury (%) ([6]; 1.0 kg ha^−1, SETFA): 50% | Visual Injury (%) ([6]; 2.0 kg ha^−1, SETFA): 50% | Visual Injury (%) ([6]; 4.0 kg ha^−1, SETFA): 70% | Visual Injury (%) ([7]; 0.5 kg ha^−1, HELAN): 30% | Visual Injury (%) ([7]; 1.0 kg ha^−1, HELAN): 40% | Visual Injury (%) ([7]; 2.0 kg ha^−1, HELAN): 60% | Visual Injury (%) ([7]; 4.0 kg ha^−1, HELAN): 70% | Visual Injury (%) ([8]; 0.5 kg ha^−1, IPOHE): 60% | Visual Injury (%) ([8]; 1.0 kg ha^−1, IPOHE): 60% | Visual Injury (%) ([8]; 2.0 kg ha^−1, IPOHE): 65% | Visual Injury (%) ([8]; 4.0 kg ha^−1, IPOHE): 75%
